{"source": "patent US11591336B2", "about": "(Relay Therapeutics, Inc., priority 2017, dated 2023)", "note": "Counter-ions that a name gives are not always drawn."}
{"biological_target": "SHP2 (Homo sapiens (Human), UniProt Q06124)", "sequence (Q06124 whole entry)": "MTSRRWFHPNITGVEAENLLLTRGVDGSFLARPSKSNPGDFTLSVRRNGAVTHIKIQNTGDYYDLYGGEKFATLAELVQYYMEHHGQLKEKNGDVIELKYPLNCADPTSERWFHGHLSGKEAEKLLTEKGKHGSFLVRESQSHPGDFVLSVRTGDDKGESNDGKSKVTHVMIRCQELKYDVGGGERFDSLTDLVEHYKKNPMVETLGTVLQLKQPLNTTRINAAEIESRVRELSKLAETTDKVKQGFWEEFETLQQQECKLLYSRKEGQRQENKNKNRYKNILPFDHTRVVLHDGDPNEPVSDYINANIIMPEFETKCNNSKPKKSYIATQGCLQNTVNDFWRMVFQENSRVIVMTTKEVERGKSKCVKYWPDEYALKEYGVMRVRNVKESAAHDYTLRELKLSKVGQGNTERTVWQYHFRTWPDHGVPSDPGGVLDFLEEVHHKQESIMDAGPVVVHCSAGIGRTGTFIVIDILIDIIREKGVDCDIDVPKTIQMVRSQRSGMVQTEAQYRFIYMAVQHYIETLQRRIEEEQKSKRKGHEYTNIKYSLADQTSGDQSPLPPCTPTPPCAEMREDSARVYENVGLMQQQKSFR", "experiment": "SHP2 Allosteric Inhibition Assay (DiFMUP prompt fluorescence)", "type": "biochemical", "details": "0.25 nM SHP2 activated with 0.5 μM peptide IRS1_pY1172(dPEG8)pY1222; substrate DiFMUP 100 μM; 25° C.", "units": {"IC50": "nM"}}
{"smiles": "C[C@@H]1OCC2(CCN(c3cnc4c(N5CCCc6cc(C#N)ccc65)n[nH]c4n3)CC2)[C@@H]1N", "note": "[Compound 217]", "IC50": "< 1000"}
{"smiles": "CC1CCN(c2n[nH]c3nc(N4CCC5(CC4)CO[C@@H](C)[C@H]5N)cnc23)c2ccc(C#N)cc21", "note": "(some centres unmarked) [Compound 218]", "IC50": "< 1000"}
{"smiles": "C[C@@H]1CCN(c2n[nH]c3nc(N4CCC5(CC4)CO[C@@H](C)[C@H]5N)cnc23)c2ccc(C#N)cc21", "note": "[Compound 219]", "IC50": "< 1000"}
{"smiles": "C[C@@H]1OCC2(CCN(c3cnc4c(N5CC[C@H](C)c6cc(C#N)ccc65)n[nH]c4n3)CC2)[C@@H]1N", "note": "[Compound 220]", "IC50": "< 1000"}
{"smiles": "C[C@@H]1OCC2(CCN(c3cnc4c(N5CCc6c(-c7nccs7)cccc65)n[nH]c4n3)CC2)[C@@H]1N", "note": "[Compound 221]", "IC50": "< 1000"}
{"smiles": "CC1CCN(c2n[nH]c3nc(N4CCC5(CC4)CNC(=O)C5)cnc23)c2cccnc21", "note": "(centres unmarked) [Compound 222, 8-[3-(4-methyl-1,2,3,4-tetrahydro-1,5-naphthyridin-1-yl)-1H-pyrazolo[3,4-b]pyrazin-6-yl]-2,8-diazaspiro[4.5]decan-3-one]", "IC50": "1000 to 10000"}
{"smiles": "CC1CCN(c2n[nH]c3nc(N4CCC5(CC4)CO[C@@H](C)[C@H]5N)cnc23)c2cc(F)c(C#N)cc21", "note": "(some centres unmarked) [Compound 223]", "IC50": "< 1000"}
{"smiles": "C[C@@H]1OCC2(CCN(c3cnc4c(N5CCCc6nc(-c7cnn(C)c7)ccc65)n[nH]c4n3)CC2)[C@@H]1N", "note": "[Compound 224, (3S,4S)-3-methyl-8-(3-(6-(1-methyl-1H-pyrazol-4-yl)-3,4-dihydro-1,5-naphthyridin-1(2H)-yl)-1H-pyrazolo[3,4-b]pyrazin-6-yl)-2-oxa-8-azaspiro[4.5]decan-4-amine]", "IC50": "< 1000"}
{"smiles": "C[C@@H]1OCC2(CCN(c3cnc4c(N5CCCc6c5ccnc6N5CCOC5=O)n[nH]c4n3)CC2)[C@@H]1N", "note": "[Compound 225]", "IC50": "< 1000"}
{"smiles": "C[C@@H]1OCC2(CCN(c3cnc4c(N5CCCc6c5ccnc6-c5cnn(C)c5)n[nH]c4n3)CC2)[C@@H]1N", "note": "[Compound 226]", "IC50": "< 1000"}
{"smiles": "C[C@@H]1OCC2(CCN(c3cnc4c(N5CC[C@H](C)c6cc(-c7ncon7)ccc65)n[nH]c4n3)CC2)[C@@H]1N", "note": "[Compound 227, (3S,4S)-3-methyl-8-(3-((S)-4-methyl-6-(1,2,4-oxadiazol-3-yl)-3,4-dihydroquinolin-1(2H)-yl)-1H-pyrazolo[3,4-b]pyrazin-6-yl)-2-oxa-8-azaspiro[4.5]decan-4-amine]", "IC50": "< 1000"}
{"smiles": "C[C@@H]1OCC2(CCN(c3cnc4c(N5CCCc6c5ccnc6C#N)n[nH]c4n3)CC2)[C@@H]1N", "note": "[Compound 228]", "IC50": "< 1000"}
{"smiles": "C[C@@H]1OCC2(CCN(c3cnc4c(N5CCC(=C(F)F)c6ccccc65)n[nH]c4n3)CC2)[C@@H]1N", "note": "[Compound 231]", "IC50": "< 1000"}
{"smiles": "C[C@@H]1OCC2(CCN(c3cnc4c(N5CCCc6c5ccnc6C5CC5)n[nH]c4n3)CC2)[C@@H]1N", "note": "[Compound 232]", "IC50": "< 1000"}
{"smiles": "Cc1nccc2c1CCCN2c1n[nH]c2nc(N3CCC4(CC3)CO[C@@H](C)[C@H]4N)cnc12", "note": "[Compound 233]", "IC50": "< 1000"}
{"smiles": "C[C@@H]1OCC2(CCN(c3cnc4c(N5CCNc6ccccc65)n[nH]c4n3)CC2)[C@@H]1N", "note": "[Compound 234]", "IC50": "< 1000"}
{"smiles": "CC(=O)N1CCN(c2n[nH]c3nc(N4CCC5(CC4)CO[C@@H](C)[C@H]5N)cnc23)c2ccccc21", "note": "[Compound 235]", "IC50": "< 1000"}
{"smiles": "C[C@@H]1OCC2(CCN(c3cnc4c(N5CCCc6c5ccnc6C(F)F)n[nH]c4n3)CC2)[C@@H]1N", "note": "[Compound 236]", "IC50": "< 1000"}
{"smiles": "C[C@@H]1OCC2(CCN(c3cnc4c(N5CCCc6nc(C7=CCOCC7)ccc65)n[nH]c4n3)CC2)[C@@H]1N", "note": "[Compound 237]", "IC50": "< 1000"}
{"smiles": "C[C@@H]1OCC2(CCN(c3cnc4c(N5CC(=O)N(C)c6ccccc65)n[nH]c4n3)CC2)[C@@H]1N", "note": "[Compound 238]", "IC50": "< 1000"}
{"smiles": "C[C@@H]1OCC2(CCN(c3cnc4c(N5CCCc6nc(C7CCOCC7)ccc65)n[nH]c4n3)CC2)[C@@H]1N", "note": "[Compound 239]", "IC50": "< 1000"}
{"smiles": "C[C@@H]1OCC2(CCN(c3cnc4c(N5CCCc6c5ccn(C)c6=O)n[nH]c4n3)CC2)[C@@H]1N", "note": "[Compound 240]", "IC50": "< 1000"}
{"smiles": "C[C@@H]1OCC2(CCN(c3cnc4c(N5CC(=O)Nc6cnccc65)n[nH]c4n3)CC2)[C@@H]1N", "note": "[Compound 241]", "IC50": "< 1000"}
{"smiles": "C[C@@H]1OCC2(CCN(c3cnc4c(N5CCCc6nc(C(N)=O)ccc65)n[nH]c4n3)CC2)[C@@H]1N", "note": "[Compound 243, 5-(6-((3S,4S)-4-amino-3-methyl-2-oxa-8-azaspiro[4.5]decan-8-yl)-1H-pyrazolo[3,4-b]pyrazin-3-yl)-5,6,7,8-tetrahydro-1,5-naphthyridine-2-carboxamide]", "IC50": "< 1000"}
{"smiles": "C[C@@H]1OCC2(CCN(c3cnc4c(N5CCCc6c(C(=O)O)cccc65)n[nH]c4n3)CC2)[C@@H]1N", "note": "[Compound 244, 1-(6-((3S,4S)-4-amino-3-methyl-2-oxa-8-azaspiro[4.5]decan-8-yl)-1H-pyrazolo[3,4-b]pyrazin-3-yl)-1,2,3,4-tetrahydroquinoline-5-carboxylic Acid]", "IC50": "< 1000"}
{"smiles": "C[C@@H]1OCC2(CCN(c3cnc4c(N5CCCc6nc(-c7ncon7)ccc65)n[nH]c4n3)CC2)[C@@H]1N", "note": "[Compound 246, (3S,4S)-8-(3-(6-(1,2,4-oxadiazol-3-yl)-3,4-dihydro-1,5-naphthyridin-1(2H)-yl)-1H-pyrazolo[3,4-b]pyrazin-6-yl)-3-methyl-2-oxa-8-azaspiro[4.5]decan-4-amine]", "IC50": "< 1000"}
{"smiles": "C[C@@H]1OCC2(CCN(c3cnc4c(N5CCNc6ncccc65)n[nH]c4n3)CC2)[C@@H]1N", "note": "[Compound 247]", "IC50": "< 1000"}
{"smiles": "C[C@@H]1OCC2(CCN(c3cnc4c(N5CCCc6nc(C#N)ccc65)n[nH]c4n3)CC2)[C@@H]1N", "note": "[Compound 248]", "IC50": "< 1000"}
{"smiles": "C[C@@H]1OCC2(CCN(c3cnc4c(N5CCC(C(F)F)c6ccccc65)n[nH]c4n3)CC2)[C@@H]1N", "note": "(some centres unmarked) [Compound 250]", "IC50": "< 1000"}
{"smiles": "C[C@@H]1OCC2(CCN(c3cnc4c(N5CCCc6c(C7CCOCC7)cccc65)n[nH]c4n3)CC2)[C@@H]1N", "note": "[Compound 251]", "IC50": "< 1000"}
{"smiles": "C[C@@H]1OCC2(CCN(c3cnc4c(N5CCCc6nc(-n7cccn7)ccc65)n[nH]c4n3)CC2)[C@@H]1N", "note": "[Compound 252]", "IC50": "< 1000"}
{"smiles": "COC(=O)n1nc(N2CCCc3ncccc32)c2ncc(N3CCC4(CC3)CO[C@@H](C)[C@H]4N)nc21", "note": "[Compound 253, methyl 6-[(3S,4S)-4-amino-3-methyl-2-oxa-8-azaspiro[4.5]decan-8-yl]-3-(1,2,3,4-tetrahydro-1,5-naphthyridin-1-yl)-1H-pyrazolo[3,4-b]pyrazine-1-carboxylate hydrochloride]", "IC50": "< 1000"}
{"smiles": "C[C@@H]1OCC2(CCN(c3cnc4c(N5CCCc6nc(-c7cc[nH]n7)ccc65)n[nH]c4n3)CC2)[C@@H]1N", "note": "[Compound 254, (3S,4S)-8-(3-(6-(1H-pyrazol-3-yl)-3,4-dihydro-1,5-naphthyridin-1(2H)-yl)-1H-pyrazolo[3,4-b]pyrazin-6-yl)-3-methyl-2-oxa-8-azaspiro[4.5]decan-4-amine]", "IC50": "< 1000"}
{"smiles": "C[C@@H]1OCC2(CCN(c3cnc4c(N5CCCc6nc(-c7ccnn7C)ccc65)n[nH]c4n3)CC2)[C@@H]1N", "note": "[Compound 255, (3S,4S)-3-methyl-8-{3-[6-(1-methyl-1H-pyrazol-5-yl)-1,2,3,4-tetrahydro-1,5-naphthyridin-1-yl]-1H-pyrazolo[3,4-b]pyrazin-6-yl}-2-oxa-8-azaspiro[4.5]decan-4-amine hydrochloride]", "IC50": "< 1000"}
{"smiles": "C[C@@H]1OCC2(CCN(c3cnc4c(N5CCCc6nc(N7CCNCC7)ccc65)n[nH]c4n3)CC2)[C@@H]1N", "note": "[Compound 256, (3S,4S)-3-methyl-8-{3-[6-(piperazin-1-yl)-1,2,3,4-tetrahydro-1,5-naphthyridin-1-yl]-1H-pyrazolo[3,4-b]pyrazin-6-yl}-2-oxa-8-azaspiro[4.5]decan-4-amine dihydrochloride]", "IC50": "< 1000"}
{"smiles": "C[C@@H]1OCC2(CCN(c3cnc4c(N5CCN(C(N)=O)c6ncccc65)n[nH]c4n3)CC2)[C@@H]1N", "note": "[Compound 258, 1-{6-[(3S,4S)-4-amino-3-methyl-2-oxa-8-azaspiro[4.5]decan-8-yl]-1H-pyrazolo[3,4-b]pyrazin-3-yl}-1H,2H,3H,4H-pyrido[2,3-b]pyrazine-4-carboxamide hydrochloride]", "IC50": "< 1000"}
{"smiles": "C[C@@H]1OCC2(CCN(c3cnc4c(N5CCCc6nc(-c7cn[nH]c7)ccc65)n[nH]c4n3)CC2)[C@@H]1N", "note": "[Compound 259]", "IC50": "< 1000"}
{"smiles": "C[C@@H]1OCC2(CCN(c3cnc4c(N5CCCc6nc(N7CC[C@@H](O)C7)ccc65)n[nH]c4n3)CC2)[C@@H]1N", "note": "[Compound 260]", "IC50": "< 1000"}
{"smiles": "C[C@@H]1OCC2(CCN(c3cnc4c(N5CCCc6nc(N7CC[C@H](O)C7)ccc65)n[nH]c4n3)CC2)[C@@H]1N", "note": "[Compound 261, (3S)-1-(5-{6-[(3S,4S)-4-amino-3-methyl-2-oxa-8-azaspiro[4.5]decan-8-yl]-1H-pyrazolo[3,4-b]pyrazin-3-yl}-5,6,7,8-tetrahydro-1,5-naphthyridin-2-yl)pyrrolidin-3-ol]", "IC50": "< 1000"}
{"smiles": "C[C@@H]1CCN(c2n[nH]c3nc(N4CCC5(CC4)CO[C@@H](C)[C@H]5N)cnc23)c2ccc(-c3cnn(C)c3)nc21", "note": "[Compound 266, (3S,4S)-3-methyl-8-{3-[(4R)-4-methyl-6-(1-methyl-1H-pyrazol-4-yl)-1,2,3,4-tetrahydro-1,5-naphthyridin-1-yl]-1H-pyrazolo[3,4-b]pyrazin-6-yl}-2-oxa-8-azaspiro[4.5]decan-4-amine]", "IC50": "< 1000"}
{"smiles": "C[C@@H]1OCC2(CCN(c3cnc4c(N5CCc6ncccc6C5)n[nH]c4n3)CC2)[C@@H]1N", "note": "[Compound 267]", "IC50": "< 1000"}
{"smiles": "C[C@@H]1OCC2(CCN(c3cnc4c(N5CCc6ccccc6C5)n[nH]c4n3)CC2)[C@@H]1N", "note": "[Compound 268]", "IC50": "< 1000"}
{"smiles": "C[C@@H]1OCC2(CCN(c3cnc4c(N5CCOc6ccccc6C5)n[nH]c4n3)CC2)[C@@H]1N", "note": "[Compound 269]", "IC50": "< 1000"}
{"smiles": "C[C@@H]1OCC2(CCN(c3cnc4c(N5CCc6ccccc6C5=O)n[nH]c4n3)CC2)[C@@H]1N", "note": "[Compound 270]", "IC50": "< 1000"}
{"smiles": "C[C@@H]1OCC2(CCN(c3cnc4c(N5CCc6cccnc6C5)n[nH]c4n3)CC2)[C@@H]1N", "note": "[Compound 271]", "IC50": "< 1000"}
{"smiles": "C[C@@H]1OCC2(CCN(c3cnc4c(N5CCc6ccncc6C5)n[nH]c4n3)CC2)[C@@H]1N", "note": "[Compound 272]", "IC50": "< 1000"}
{"smiles": "C[C@@H]1OCC2(CCN(c3cnc4c(N5CCc6cc(C#N)ccc6C5)n[nH]c4n3)CC2)[C@@H]1N", "note": "[Compound 273]", "IC50": "< 1000"}
